In patent publication US20030003485A1, “Methods for identifying antigens” (Ludwig Institute for Cancer Research, priority 2001, published 2003):
Ends that are not written are not given here.

What was measured:
Assay type in all cases: cell-based, mouse
[1] = test system: CTL clone B-24; assay: Cytotoxicity assay (51Cr release) with CTL clone B-24; conditions: peptide pulsed P1.HTR target cells
Procedure: Cytotoxicity assay. Tumor cells were labeled by incubating 2×10^6 cells with 2 MBq of Na2^51CrO4, (New England Nuclear, Boston, Mass.) in 0.3 ml of medium for 90 min at 37° C. under 5% CO2 in air. The cells were washed and used as targets. […] In antibody blocking assays, serially diluted mAb (100 μl) was added to the mixture of effector cells and 10^4 labeled target cells (100 μl). After incubation for 3.5 hr at 37° C. under 5% CO2 in air, the supernatants were removed and their radioactivity was measured. The percentage of specific lysis was calculated by the following equation: (a-b)/(c-b)×100, where a is the radioactivity in the supernatant of target cells mixed with effector cells, b is the radioactivity in the supernatant of target cells incubated alone, and c is the radioactivity in the supernatant after lysis of target cells with 1% NP-40.

[2] = test system: CTL clone B-24; assay: IFNγ ELISPOT assay with CTL clone B-24, peptide-pulsed stimulator cells and antibody blocking; conditions: 5,000 B-24 cells, 10,000 CMS8 stimulator cells pulsed with peptide, 96-well plates
Procedure: ELISPOT assay. […] CTL were incubated with stimulator cells on the coated membrane in 96- or 24-well plates for 18 hr at 37° C. under 5% CO2 in air. After culture, the membranes were thoroughly washed with distilled water and incubated with detection antibody for 90 min at 37° C. The IFNγ spots were developed by alkaline phosphatase-conjugated substrate kit (Bio-Rad, Hercules, Calif.) and counted with a dissecting microscope.

[3] = test system: AT-1 CTL; assay: Cytotoxicity assay (4 hr 51Cr release) with AT-1 CTL
Procedure: In FIG. 10A, CMS8 cells were ^51Cr labeled and pulsed with the peptide at different concentrations. Cytotoxicity was determined by 4 hr ^51Cr release assay. Effector to target cell ratio was 10. In FIG. 10B, 1×10^4 AT-1 CTL was stimulated with 1×10^4 CMS8 cells in the presence of the 1.0 μM peptide. IFNγ in the supernatant was measured by ELISA.
Cytotoxicity assay. Tumor cells were labeled by incubating 2×10^6 cells with 2 MBq of Na2^51CrO4 (New England Nuclear, Boston, Mass.) in 0.3 ml of medium for 90 min at 37° C. under a 5% CO2 in air. The cells were washed and used as targets. For peptide sensitization, labeled target cells were incubated with peptides at 37° C. for 30 min […]. In direct assays, 10^4 labeled target cells (100 μl) were incubated with effector cells (100 μl) cells. In antibody blocking assays, serially diluted mAb (100 μl) was added to the mixture of effector cells and 10^4 labeled target cells (100 μl). After incubation for 4 hr at 37° C. under a 5% CO2 in air, the supernatants were removed and their radioactivity was measured. The percentage of specific lysis was calculated by the following equation: (a−b)×100/(c−b), where a is the radioactivity in the supernatant of target cells mixed with effector cells, b is that in the supernatant of target cells incubated alone, and c is that in the supernatant after lysis of target cells with 1% NP-40.

[4] = test system: AT-1 CTL; assay: IFNγ ELISA of AT-1 CTL stimulated with transfected or peptide-pulsed CMS8 cells; conditions: 1.0 μM synthetic peptide, 24 hr
Procedure: FIG. 8 depicts deletion mutants and introduction of point mutations in S35. IFNγ production in the supernatant secreted by AT-1 CTL against various constructs was determined by ELISA after culture for 24 hr with transfected CMS8 cells. PCR fragments with deletion were amplified from S35 cDNA and cloned into pCI-neo vector with EcoR I and Sal I sites. Point mutations at nt 699 (A to C) and nt 701 (G to A) in Exp. III were introduced using site-directed mutagenesis kits.
9-mer overlapping peptides were synthesized in the ORF of the third reading frame (“3RF”) of S35. 1×10^4 AT-1 cells were cultured with 1×10^4 CMS8 cells in the presence of 1.0 μM synthetic peptides for 24 hr and IFNγ in the supernatant was measured by ELISA. H-2D^d peptide motifs are shown as XGPXXXXXL (SEQ ID NO: 26) and XGAXXXXXL (SEQ ID NO:27). The synthetic peptides are MERTPIQLGAEAIFRLVLM (SEQ ID NO:15); MERTPIQLG (SEQ ID NO:16); ERTPIQLGA (SEQ ID NO:17); RTPIQLGAE (SEQ ID NO:18); TPIQLGAEA (SEQ ID NO:19); PIQLGAEAI (SEQ ID NO:20); IQLGAEAIF (SEQ ID NO:21); QLGAEAIFR (SEQ ID NO:22); LGAEAIFRL (SEQ ID NO:10); GAEAIFRLV (SEQ ID NO: 23); AEAIFRLVL (SEQ ID NO:24); and EAIFRLVLM (SEQ ID NO:25).
IFNγ ELISA. CTL were stimulated with targets for 18 hr. and IFNγ in the culture supernatant was assayed by the sandwich ELISA. […]

[5] = test system: AT-1 CTL; assay: IFNγ ELISPOT assay with AT-1 CTL
Source text: Transfection. Recombinant plasmids were purified by Wizard Plus Series 9600™ DNA purification system (Promega, Co., Madison, Wis.) after amplification of bacteria and transfected into 1×10^5 or 1×10^4 cells 24- or 96-well plates, respectively, with plasmid pdl3027 containing the polyoma T antigen (Dailey and Basilico, J. Virol. 54:739-749, 1985) using lipofectamine (GIBCO BRL, Rockville, Md.). After culture for 24 hr, the transfected cells were collected and plated onto anti-IFNγ mAb-coated nitrocellulose membranes in culture plates. AT-1 CTL were then added for ELISPOT assay.
ELISPOT assay. Nitrocellulose disk membranes (14 mm diameter) and 96-well nitrocellulose membrane-based plates (Millipore S4510, Millipore Corp., Bedford, Mass.) were coated with anti-IFNγ mAb (R4-6A2) in 0.05 M bicarbonate buffer (pH 9.6) at 4° C. overnight. After washing, membranes were blocked with RPMI 1640 containing 10% FCS and 50 μM 2-mercaptoethanol for 60 min at 37° C. CTL were incubated with stimulator cells on the coated membrane in 24- or -96well plates for 18 hr at 37° C. under a 5% CO2 in air. […] The IFNγ spots were developed by alkaline phosphatase-conjugated anti-rabbit IgG antibody and substrate kit (Bio-Rad, Hercules, Calif.) and counted with a dissecting microscope.

Molecule: IPGLPLSL [pRL1a, IPGLPLSL]
- cytotoxicity of B-24 against peptide pulsed P1.HTR [1]: showed cytotoxicity

Molecule: ISTQNHRALDLVA (listed as Mus musculus) [T2H]
- number of IFNγ spots [2]: no spot

Molecule: LGAEAIFRL (listed as Mus musculus)
- inhibition of Meth A (sv) lysis by AT-1 CTL by peptide pulsed P815 [3]: completely inhibited
- peptide concentration at which AT-1 CTL lysis of peptide pulsed CMS8 was detected ([3]; 4 hr 51Cr release, effector to target cell ratio 10): 20 to 30 nM
- stimulation of AT-1 for IFNγ production by peptide pulsed CMS8 cells [4]: stimulation was observed

Molecule: LSPFPFDL [p2Ca]
- number of IFNγ spots [2]: no spot

B1: S35: cDNA clone, 937 bp long, from Meth A (sv) cDNA library, coding for antigen recognized by AT-1 (nucleic acid, listed as Mus musculus)
DNA: TTAAAAGGGAGATGGAAAGGACTCCAATCCAATTAGGGGCAGAAGCTATCTTTAGACTAGTACTAATGTGGTGAGTATCCTGCCTCACTTAACATCCTTAACCTAGCCTGTGCTTCAGGGAAAGGAAACAAAAGATAGATATATAAAGGCTATTTACTCTGCAAGCCAAACCAAAATTTTGGTACAGAAAATGACAAAGTTTCTTTTTCTCAATAGTAGGAATGTTCTGTGTTCCTAGCCAAAAATTTGTCATCAGTGTCCCTGTGGCTCCCATCTGTCTTTCCTGACCCCCATGATTACTTTTCACTGACAATATAAATCTTAAAAAGCTTTGAGACCAGTGTGCTGATCTAGTTTTTTAAGTTTTGGGTTTTGTTGTTGTGTTTTGGTTTTGGTGTTTTTACGTTTTATTGACTTACAAGCTTTCACTATGTATCCCAGACTGGCTTTGAACTCAGGACCTTCCTGCCTTAGTCTCCCAGGTGCTGAGATTGTGGGGCTGTGTCACTATATTACAACTAATATTTATCAGAAAAATGTTCCTTTTTTGGAAGAAAATGAAGAAAGTGCTGTTTTTGCACTTATCAATTGAGGGGCTGATTTTGATTCGCTCAAGAAAATAGCAGTTTTAACCTAGACATTTGCTGTGGGGACTTGGAACTTTAACTTGGGGTGTCGCTAACTCTACGCTTTCTTCTAGGTCACCATTACTCCCAGCTCCATGAGGAAGATATGTACATACTTTCGTAGAAAGACTCAAGATGACTTCTGCAGTCCTGAACACTCAACTGAATTATAGATGCTAATCTGAAGTTCATTGAACTTGGGTCTACAAAGATTTTTTAAAAAGGCTTTAAAATTCTGGTCTTTAAGAAAATGGTCATCTTTTCATTTTGGAAAAAGTCCTTCTACTCTTTAGCAGACCTAGTCAGGCCCC
- stimulation of AT-1 by cells transfected with cDNA clone ([5]; CMS5a, CMS8 and CMS13, or H-2D^d-transfected L cells): stimulated
- stimulation of AT-1 by cells transfected with cDNA clone ([5]; H-2L^d-transfected L cells): not
